In series [1] the target is T1, OATP2B1 (Homo sapiens, UniProt O94956).
T1 sequence (O94956 1-709): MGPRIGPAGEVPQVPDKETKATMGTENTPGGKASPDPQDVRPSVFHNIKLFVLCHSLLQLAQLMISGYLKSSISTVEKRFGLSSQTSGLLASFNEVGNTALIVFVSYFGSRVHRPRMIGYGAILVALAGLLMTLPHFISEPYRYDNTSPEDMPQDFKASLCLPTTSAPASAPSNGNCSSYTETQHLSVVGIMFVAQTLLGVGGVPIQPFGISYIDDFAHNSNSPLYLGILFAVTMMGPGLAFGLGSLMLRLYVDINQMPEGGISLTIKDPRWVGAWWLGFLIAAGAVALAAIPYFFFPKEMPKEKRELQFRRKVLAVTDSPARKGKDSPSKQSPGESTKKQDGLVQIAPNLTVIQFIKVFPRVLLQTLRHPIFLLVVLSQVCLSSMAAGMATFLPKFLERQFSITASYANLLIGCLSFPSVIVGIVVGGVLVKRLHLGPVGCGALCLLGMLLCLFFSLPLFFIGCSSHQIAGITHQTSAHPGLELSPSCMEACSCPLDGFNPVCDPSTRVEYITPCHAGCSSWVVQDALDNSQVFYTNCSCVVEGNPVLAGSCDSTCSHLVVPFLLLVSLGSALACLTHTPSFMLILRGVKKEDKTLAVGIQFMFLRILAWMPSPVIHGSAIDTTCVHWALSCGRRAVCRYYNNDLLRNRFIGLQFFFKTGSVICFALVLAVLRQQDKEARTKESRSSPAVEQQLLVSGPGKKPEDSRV
As to the kind of experiment: Inhibition of OATP2B1-mediated estrone 3-sulfate uptake in MDCKII-OATP2B1 cells. Format: cell-based. The settings on record: 0 to 316 μM.

The target in series [2] is T1, OATP2B1. The conditions noted are these: OATP2B1-overexpressing Xenopus laevis oocytes; cited from earlier work.

`COc1ccc([C@@H]2CC(=O)c3c(O)cc(O[C@@H]4O[C@H](CO[C@@H]5O[C@@H](C)[C@H](O)[C@@H](O)[C@H]5O)[C@@H](O)[C@H](O)[C@H]4O)cc3O2)cc1O` [Hesperidin, hesperidin]: the “inhibition at the concentrations tested” value at OATP2B1 [1] was “no inhibition”. Moreover, the 50% inhibitory concentration (IC50) on OATP2B1 [2] was 1.92 µM.

Broadly, the IC50 is the concentration that gives 50% inhibition.

These data come from PMC5397323 (Biopharmaceutics & drug disposition, 2017).
